Measured values: patent publication US20100151486A1, “OSTEOPONTIN FUNCTIONAL EPITOPES, MONOCLONAL ANTIBODIES AGAINST THE EPITOPES AND USES THEREOF” (SHANGHAI NATIONAL ENGINEERING RESEARCH CENTER OF A, priority 2007, published 2010)
Each block holds one molecule with its values, some of them ahead of it.

Tests used:
[1] = tested on: human vascular endothelial cell (HUVEC); assay: HUVEC proliferation by 3H-TdR incorporation; type: cell-based; settings: M200+1% BSA+OPN; 24 hours
Protocol: HUVEC cell proliferation was measured by the ^3H-TdR incorporation method to determine the protective effect of OPN on cell survival and the inhibitory effect of the anti-OPN antibodies on the OPN protection. Each well of a 96-well plate was inoculated with 2×10^4 HUVECs and cultured in a complete medium for 24 hours. The cells were then treated as following for 24 hours: […]
iv. M200+1% BSA+OPN+murine anti-OPN antibody 1A12 v. M200+1% , BSA+OPN+human-murine chimeric anti-OPN antibody c1A12 vi. M200+1% BSA+OPN+humanized anti-OPN antibody h1A12 vii. M200+1% BSA+OPN+irrelevant antibody
24 hours later, 1 uCi/well ^3H-thymidine was added and, after being incubated at 37° C. for 6 hours, washed once with PBS. The plate was treated with ice-cold 10% trichloroacetic acid/H2O at 4° C. for 10 min, and then washed for two times with, ice-cold ddH2O. Cytolysis was conducted by adding into each well 0.1 ml of 0.5 N NaOH, 0.5% SDS at room temperature for 10 min. After adding 0.2 ml of 0.5 N HCl and mixing, the cells were collected using a multiple cell collector.

[2] = tested on: chicken embryo chorioallantoic membrane (CAM); assay: Chicken embryo chorioallantoic membrane (CAM) angiogenesis assay; type: in vivo; settings: human OPN 250 ng; P<0.01
Protocol: The Leghorn chicken embryos were purchased from the farm with a fertilization rate of >90%. The 8-day old chicken embryos were selected. After sterilization, a small hole was drilled in the center of the top air chamber of the embryo with a lancet, the surrounding shell with the inner membrane was removed with caution to create an opening of 1 cm×1 cm. Then the following analytes/gelatin sponge were added to the CAM surface: i) PBS; ii) HOPN; iii) human OPN (250 ng); iv) human OPN (250 ng)+the irrelevant antibody as control (1 μg); v) human OPN (250 ng)+the murine anti-OPN antibody 1A12 (1 μg); vi) human OPN (250 ng)+the murine-human chimeric anti-OPN antibody c1A12 (1 μg); vii) human OPN (250 ng)+the humanized anti-OPN antibody h1A1.2 (1 μg).
The analytes/gelatin sponge were added to the CAM surface, which was far away from the already-formed dense vascular network. […] The number of vessels within an area edging 2 mm from the edges of the carrier slide was counted under a dissecting microscope to study the angiogenesis using the “vascular index” (Ribatti, D., B. Nico, A. Vacca et al., The gelatin sponge-chorioallantoic membrane assay. Nat Protoc, 2006, 1 (1): 85-91). The number of vessel was counted at the same magnification under the dissecting microscope. The result in each sample group was expressed as “mean±standard deviation (x±S)”. […]

[3] = target: T1, human osteopontin (human OPN protein) (human, UniProt P10451 17-314, limits assumed); assay: Western blot on purified recombinant OPN
T1 construct: The isoform follows from the 963 bp PCR fragment and is not otherwise stated; also called hOPN

[4] = target: T1, human osteopontin (human OPN protein); assay: ELISA, plate coated with OPN 2 ug/ml, COS-1 supernatant, HRP-rabbit anti-human IgG
Protocol: An ELISA plate was coated with 2 ug/ml OPN. The binding activity of the humanized antibody obtained from the transfection was detected by ELISA. […] The amino acid sequences of the h1A12HBb's and the h1A12Lb's variable regions were shown in FIG. 4, SEQ ID NO: 18 and SEQ ID NO: 19 show the nucleotide sequence and the amino acid sequence of h1A12Hb's variable region respectively. SEQ ID NO: 20 and SEQ ID NO: 21 show the nucleotide sequence and the amino acid sequence of h1A12Lb's variable region respectively. The genes of the humanized antibody's VH and VL (h1A12VHb/h1A12VLb) were synthesized respectively. […] Then, expression vectors of the light and the heavy chain were used to co-transfect the COS-1 cells. The antibody's antigen-binding activity was determined by ELISA. Specifically, an ELISA plate was coated with OPN protein (2 ug/ml) coated at 4° C. overnight, and was blocked with 2% BSA-PBS for 2 h at 37° C. […] HRP-rabbit anti-human IgG was added into the plate for binding reaction (incubated at 37° C. for 1 h).

T1 sequence (P10451 17-314 limits assumed): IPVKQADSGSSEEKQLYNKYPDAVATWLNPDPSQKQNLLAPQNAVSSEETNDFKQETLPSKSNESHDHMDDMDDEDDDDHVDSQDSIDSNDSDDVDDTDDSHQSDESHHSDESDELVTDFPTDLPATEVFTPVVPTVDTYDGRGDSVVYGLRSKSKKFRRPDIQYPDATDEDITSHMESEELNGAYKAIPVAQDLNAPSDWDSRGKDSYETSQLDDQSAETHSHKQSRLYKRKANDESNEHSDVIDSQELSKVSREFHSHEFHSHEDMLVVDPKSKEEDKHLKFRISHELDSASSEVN

Molecule: OPN: human osteopontin protein expressed in Pichia yeast and purified (Example 3)
3H-TdR incorporation relative to the 1% BSA treatment group [1]: 3.08±0.64 times
angiogenesis in the chicken embryo's CAM in comparison with PBS [2]: significantly enhance

binding result [3]: binds
B1: murine anti-human OPN monoclonal antibody 1A12 (antibody, V domains shown)
VH: QVQLEQSGPELVKPGASVKMSCKSSGYTFTTYVMHWVKQKPGQGLEWIGYINPYNDGSKYNEKFKGKATLTSDKSSNTAYMELSSLTSEDSAVYYCASHYGGSPAYWGQGTLVTVSA
VL: DILMTQTPLSLPVSLGDQASISCRSSQSLVHSNGNTYLHWYLQKPGQSPKLLIYKVSNRFSGVPDRFSGSGSGTDFTLKISRVEAEDLGVYFCSQSTHVPWTFGGGTKLEIKR
notes: Hybridoma antibody purified from mouse ascites on protein A. Mouse constant regions; also called mouse anti-hOPN mAb 1A12; anti-OPN mAb 1A12

binding result [4]: binds
B2: human-mouse chimeric anti-hOPN antibody c1A12 (antibody, human IgG1, kappa, V domains shown)
VH: QVQLEQSGPELVKPGASVKMSCKSSGYTFTTYVMHWVKQKPGQGLEWIGYINPYNDGSKYNEKFKGKATLTSDKSSNTAYMELSSLTSEDSAVYYCASHYGGSPAYWGQGTLVTVSA
VL: DILMTQTPLSLPVSLGDQASISCRSSQSLVHSNGNTYLHWYLQKPGQSPKLLIYKVSNRFSGVPDRFSGSGSGTDFTLKISRVEAEDLGVYFCSQSTHVPWTFGGGTKLEIKR
notes: Tested as COS-1 supernatant in the ELISA and as CHO-purified antibody in the cell assays; also called chimeric antibody c1A12
